Laboratory results taken from patent US20150148551A1, “GENISTEIN FOR REDUCING LEVELS OF STORAGE COMPOUNDS IN THE TREATMENT AND/OR PREVENTION OF LYSOSOMAL STORAGE DISEASES (LSDS)” (3G THERAPEUTICS, INC., priority 2012, published 2015).

Tests used:
Format in all cases: cell-based, human
[1] = system: FVT1; experiment: DNA microarray, FVT1 expression in fibroblasts exposed to genistein; details: for FVT1 fold change Average: 48 h vs DMSO
Procedure: (§1) The experiments were conducted to characterise the transcriptomic profile of human fibroblast cells exposed to genistein, and in particular to determine the expression of genes encoding lysosomal enzymes involved in metabolism (i.e. synthesis and degradation) of organic substances. The absence or deficiency of these enzymes' activity is responsible for occurrence of various lysosomal storage diseases (LSD) (including MPS). The tested hypothesis assumed that genistein influences the expression of many genes, among which there are genes coding for enzymes required in metabolism of compounds, which are pathologically stored in LSD. The results provide important information regarding genistein action on the molecular level within the range of gene expression modulation by this substance. The experiment was conducted in biological quintuplicates. Human dermal fibroblasts (HDFa) were exposed in vitro for 1, 24 or 48 hours to: 30, 60 or 100 μM of genistein; 0.05% DMSO (K1); or were untreated (control cells) (K2), and total RNA was isolated and analysed.
(§2) Fibroblast cells were grown in Dulbecco (DMEM) medium supplemented with 10% fetal bovine serum (FBS) with the addition of 1% antibiotics and anti-fungal agents at 37° C. in humidified atmosphere of 5% CO2, until the required confluency was obtained.
(§3) To determine the effect of tested compound on the transcriptom of the fibroblast cells, the growth medium was replaced with fresh medium, either non-supplemented (0.05% DMSO), or containing genistein (30, 60 or 100 μM, in 0.05% DMSO). The exposure was done for 1, 24 or 48 hours.
(§4) Total RNA was isolated from fibroblasts using High Pure RNA Isolation Kit according to the protocol and then it was quantitatively evaluated using Quant-It™ RiboGreen® Assay Kit.
(§5) Biotinylated cRNA was prepared using Ambion Total PrepAmp Kit for Illumina arrays.
(§6) Standard hybridization and quantitative image analysis procedures—Illumina hybridization protocol and Illumina scanning protocol, were used.
(§7) Processing of the results was done during data definition, including: background correction (using background subtraction method), normalization (using quantile normalization algorithm with Illumina GenomeStudio software package: gene expression module version 1.9.0) and summarization (using method, which sums the values of signal intensities from a set of probes).

[2] = system: AGA; experiment: DNA microarray, AGA expression in fibroblasts exposed to genistein; details: for AGA fold change Average: 48 h vs DMSO
Procedure: as §1, §2, §3, §4, §5, §6, §7

[3] = system: IDUA; experiment: DNA microarray, IDUA expression in fibroblasts exposed to genistein; details: for IDUA fold change Average: 48 h vs DMSO
Procedure: as §1, §2, §3, §4, §5, §6, §7

[4] = system: MANBA; experiment: DNA microarray, MANBA expression in fibroblasts exposed to genistein; details: for MANBA fold change Average: 48 h vs DMSO
Procedure: as §1, §2, §3, §4, §5, §6, §7

[5] = system: ST3GAL4; experiment: DNA microarray, ST3GAL4 expression in fibroblasts exposed to genistein
Procedure: as §1, §2, §3, §4, §5, §6, §7

[6] = system: HYAL3; experiment: DNA microarray, HYAL3 expression in fibroblasts exposed to genistein; details: for HYAL3 fold change Average: 48 h vs DMSO
Procedure: as §1, §2, §3, §4, §5, §6, §7

[7] = system: CHST14; experiment: DNA microarray, CHST14 expression in fibroblasts exposed to genistein
Procedure: as §1, §2, §3, §4, §5, §6, §7

O=c1c(-c2ccc(O)cc2)coc2cc(O)cc(O)c12 [genistein, 4′,5,7-trihydroxy-3-phenylchromen-4-one]
FVT1 fold change Average 1h30/1hK1 ([1]; 30 μM, 1 h vs 0.05% DMSO): 1.0953 fold change | FVT1 fold change Average ([1]; 30 μM): 1.2441 fold change | FVT1 fold change Average 1h60/1hK1 ([1]; 60 μM, 1 h vs 0.05% DMSO): 1.137 fold change | FVT1 fold change Average ([1]; 60 μM): 1.603 fold change | FVT1 fold change Average 1h100/1hK1 ([1]; 100 μM, 1 h vs 0.05% DMSO): 1.035 fold change | FVT1 fold change Average ([1]; 100 μM): 1.422 fold change | AGA fold change Average 1h30/1hK1 ([2]; 30 μM, 1 h vs 0.05% DMSO): 1.0395 fold change | AGA fold change Average ([2]; 30 μM): 1.3732 fold change | AGA fold change Average 1h60/1hK1 ([2]; 60 μM, 1 h vs 0.05% DMSO): 0.9753 fold change | AGA fold change Average ([2]; 60 μM): 1.864 fold change | AGA fold change Average 1h100/1hK1 ([2]; 100 μM, 1 h vs 0.05% DMSO): 0.9749 fold change | AGA fold change Average ([2]; 100 μM): 2.33 fold change | IDUA fold change Average 1h30/1hK1 ([3]; 30 μM, 1 h vs 0.05% DMSO): 0.8853 fold change | IDUA fold change Average ([3]; 30 μM): 1.1407 fold change | IDUA fold change Average 1h60/1hK1 ([3]; 60 μM, 1 h vs 0.05% DMSO): 0.9788 fold change | IDUA fold change Average ([3]; 60 μM): 1.212 fold change | IDUA fold change Average 1h100/1hK1 ([3]; 100 μM, 1 h vs 0.05% DMSO): 0.9034 fold change | IDUA fold change Average ([3]; 100 μM): 1.309 fold change | MANBA fold change Average 1h30/1hK1 ([4]; 30 μM, 1 h vs 0.05% DMSO): 1.0095 fold change | MANBA fold change Average ([4]; 30 μM): 1.6385 fold change | MANBA fold change Average 1h60/1hK1 ([4]; 60 μM, 1 h vs 0.05% DMSO): 1.041 fold change | MANBA fold change Average ([4]; 60 μM): 2.173 fold change | MANBA fold change Average 1h100/1hK1 ([4]; 100 μM, 1 h vs 0.05% DMSO): 0.9489 fold change | MANBA fold change Average ([4]; 100 μM): 2.387 fold change | ST3GAL4 fold change Average 1h30/1hK1 ([5]; 30 μM, 1 h vs 0.05% DMSO): 0.9885 fold change | ST3GAL4 fold change Average 24h30/24hK1 ([5]; 30 μM, 24 h vs 0.05% DMSO): 0.782 fold change | ST3GAL4 fold change Average 48h30/48hK1 ([5]; 30 μM, 48 h vs 0.05% DMSO): 1.065 fold change | ST3GAL4 fold change Average 1h60/1hK1 ([5]; 60 μM, 1 h vs 0.05% DMSO): 0.9205 fold change | ST3GAL4 fold change Average 24h60/24hK1 ([5]; 60 μM, 24 h vs 0.05% DMSO): 0.9205 fold change | ST3GAL4 fold change Average 48h61/48hK1 ([5]; 60 μM, 48 h vs 0.05% DMSO): 0.9931 fold change | ST3GAL4 fold change Average 1h100/1hK1 ([5]; 100 μM, 1 h vs 0.05% DMSO): 0.8637 fold change | ST3GAL4 fold change Average 24h100/24hK1 ([5]; 100 μM, 24 h vs 0.05% DMSO): 0.6646 fold change | ST3GAL4 fold change Average 48h100/48hK1 ([5]; 100 μM, 48 h vs 0.05% DMSO): 0.8911 fold change | HYAL3 fold change Average 1h30/1hK1 ([6]; 30 μM, 1 h vs 0.05% DMSO): 1.1887 fold change | HYAL3 fold change Average ([6]; 30 μM): 0.8605 fold change | HYAL3 fold change Average ([6]; 60 μM): 0.9492 fold change | HYAL3 fold change Average 1h100/1hK1 ([6]; 100 μM, 1 h vs 0.05% DMSO): 1.141 fold change | HYAL3 fold change Average ([6]; 100 μM): 1.001 fold change | CHST14 fold change Average 1h30/1hK1 ([7]; 30 μM, 1 h vs 0.05% DMSO): 1.007 fold change | CHST14 fold change Average 24h30/24hK1 ([7]; 30 μM, 24 h vs 0.05% DMSO): 0.8234 fold change | CHST14 fold change Average 48h30/48hK1 ([7]; 30 μM, 48 h vs 0.05% DMSO): 0.9217 fold change | CHST14 fold change Average 1h60/1hK1 ([7]; 60 μM, 1 h vs 0.05% DMSO): 0.851 fold change | CHST14 fold change Average 24h60/24hK1 ([7]; 60 μM, 24 h vs 0.05% DMSO): 0.8184 fold change | CHST14 fold change Average 48h61/48hK1 ([7]; 60 μM, 48 h vs 0.05% DMSO): 0.8526 fold change | CHST14 fold change Average 1h100/1hK1 ([7]; 100 μM, 1 h vs 0.05% DMSO): 1.06 fold change | CHST14 fold change Average 24h100/24hK1 ([7]; 100 μM, 24 h vs 0.05% DMSO): 0.8438 fold change | CHST14 fold change Average 48h100/48hK1 ([7]; 100 μM, 48 h vs 0.05% DMSO): 0.6534 fold change
